For assay [1], the target named is CDK1/cyclin B (Homo sapiens (Human), UniProt P06493). Briefly: CDK1/cyclin B enzymatic activity assay (IMAP-FP). In kind it is biochemical. The note with it: […] CDK1/cyclin B, 100 nM Tamra Histone-H1 peptide, 20 μM ATP, 120 min at room temperature; read-out: Biochemical CDK1 enzyme IC50. An excerpt:
CDK1/Cyclin B Enzymatic Activity Assay
A 384-well microtiter IMAP-FP™ (Molecular Devices Trade Mark Technology) endpoint assay was used for CDK1/cyclin B kinase activity measurements. The same assay was used for IC50 determination of small molecule inhibitors.

For assay [2], the target named is CDK4/cyclin D1 (Homo sapiens (Human), UniProt P11802). Briefly: CDK4/cyclin D1 enzymatic activity assay (TR-FRET, phosphorylation of pRb at Ser780). In kind it is biochemical. The conditions noted are these: 0.3 nM CDK4/cyclin D1, 150 nM biotin-pRb (773-924), 3 μM ATP, 60 min at 22° C.; read-out: Biochemical CDK4 enzyme IC50. The essentials: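 Phosphorylation at pRb Ser780, detected by TR-FRET, gave IC50s and kinetics. Enzyme: baculovirus/Sf21-expressed human CDK4/cyclin D1. ATP at 3 μM initiated the reaction; EDTA (pH 8.0) stopped it after 60 min at 22° C.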
A general note: Time-resolved FRET reads energy transfer from a long-lived donor to a nearby acceptor.

Assay [3] deals with phosphorylation of pRb at the Ser780 site in JeKo-1 mantle cell lymphoma cells. Briefly: CDK4 cellular assay: ELISA of pRb phosphorylation at Ser780 in JeKo-1 cells. In kind it is cell-based. The conditions noted are these: Homo sapiens, JeKo-1, JeKo-1 cells. On the technique in general: ELISA stands for enzyme-linked immunosorbent assay.
Where [4] appears, read: p-pRb % inhibition adjusted with total pRb levels, read-out: Normalized cellular ppRb inhibition IC50.
[5] abbreviates: p-pRb Ser780 ELISA, non-normalized, read-out: Cellular ppRb inhibition IC50.

As usually defined, the IC50 is the midpoint of a concentration-inhibition curve.

The structures appear in SMILES notation. Like-named read-outs stand apart in the source and are kept apart here. Where only a bound is given, the exact number is not on record here.

Sequence of CDK4/cyclin D1 (P11802 whole entry): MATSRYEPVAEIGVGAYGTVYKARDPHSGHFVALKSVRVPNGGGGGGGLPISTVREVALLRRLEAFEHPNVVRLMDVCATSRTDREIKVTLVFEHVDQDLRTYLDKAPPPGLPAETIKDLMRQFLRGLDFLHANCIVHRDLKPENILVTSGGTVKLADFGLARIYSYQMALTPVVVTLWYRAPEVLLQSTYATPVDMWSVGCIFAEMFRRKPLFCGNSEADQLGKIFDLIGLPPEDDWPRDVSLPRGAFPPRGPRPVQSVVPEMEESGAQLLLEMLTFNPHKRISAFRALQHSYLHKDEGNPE
Sequence of CDK4/cyclin D1 (P24385 whole entry partner): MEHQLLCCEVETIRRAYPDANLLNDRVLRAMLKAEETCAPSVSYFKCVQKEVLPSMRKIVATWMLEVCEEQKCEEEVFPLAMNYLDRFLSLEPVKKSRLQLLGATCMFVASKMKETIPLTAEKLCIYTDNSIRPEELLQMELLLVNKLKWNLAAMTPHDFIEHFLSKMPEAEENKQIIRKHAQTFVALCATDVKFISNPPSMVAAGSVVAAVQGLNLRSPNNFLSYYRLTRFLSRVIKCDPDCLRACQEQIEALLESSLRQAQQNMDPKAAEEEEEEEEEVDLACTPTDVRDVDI
Sequence of CDK1/cyclin B (P06493 whole entry, species assumed): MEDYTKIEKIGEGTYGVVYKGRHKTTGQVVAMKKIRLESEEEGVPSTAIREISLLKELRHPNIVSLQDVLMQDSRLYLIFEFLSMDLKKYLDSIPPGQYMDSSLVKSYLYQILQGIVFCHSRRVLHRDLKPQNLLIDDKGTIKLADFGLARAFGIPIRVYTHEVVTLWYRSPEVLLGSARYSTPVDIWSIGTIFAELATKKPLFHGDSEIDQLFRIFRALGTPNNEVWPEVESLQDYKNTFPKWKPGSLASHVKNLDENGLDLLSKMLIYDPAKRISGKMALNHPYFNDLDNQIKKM
Sequence of CDK1/cyclin B (P14635 whole entry partner, species assumed): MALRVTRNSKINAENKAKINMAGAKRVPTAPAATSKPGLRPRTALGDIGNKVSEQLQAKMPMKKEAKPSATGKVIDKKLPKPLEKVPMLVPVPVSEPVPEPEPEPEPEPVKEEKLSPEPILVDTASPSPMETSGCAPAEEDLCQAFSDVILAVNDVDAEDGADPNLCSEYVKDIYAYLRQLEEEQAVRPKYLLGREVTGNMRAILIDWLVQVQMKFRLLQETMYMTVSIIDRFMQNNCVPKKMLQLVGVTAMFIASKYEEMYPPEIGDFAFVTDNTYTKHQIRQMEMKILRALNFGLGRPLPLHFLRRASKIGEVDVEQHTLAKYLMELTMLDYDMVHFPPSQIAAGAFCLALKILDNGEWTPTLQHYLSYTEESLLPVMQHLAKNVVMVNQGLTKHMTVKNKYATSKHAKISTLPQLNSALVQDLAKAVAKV

`CN(C)C(=O)c1cc2cnc(Nc3ccc(N4CC5CNCC5CC4=O)cn3)nc2n1C1CCCC1` (racemic) [Example 90, 7-cyclopentyl-N,N-dimethyl-2-(5-(cis-6-oxotetrahydro-1H-pyrrolo[3,4-c]pyridin-5(6H,7H,7aH)-yl)pyridin-2-ylamino)-7H-pyrrolo[2,3-d]pyrimidine-6-carboxamide]: the IC50 is above 15000 nM in assay [1], 5 nM in assay [2], 14 to 56 nM in assay [3] (setting [4]) and 9 to 34 nM in assay [3] (setting [5]).

Regarding `CN(C)C(=O)c1cc2cnc(Nc3ccc(C(=O)N4C[C@H]5CNC[C@@H](C4)C5O)cn3)nc2n1C1CCCCCC1` (stereo partly drawn) [Example 2, 7-cycloheptyl-2-(5-((1R,5S)-9-hydroxy-3,7-diazabicyclo[3.3.1]nonane-3-carbonyl)pyridin-2-ylamino)-N,N-dimethyl-7H-pyrrolo[2,3-d]pyrimidine-6-carboxamide], the IC50 is above 15000 nM in assay [1], 5 nM in assay [2], 84 nM in assay [3] (setting [4]) and 66 nM in assay [3] (setting [5]).

Source of the values: patent US8957074B2 (Novartis AG, priority 2010, dated 2015).
